Assay results taken from patent US8039076B2, “Dye and recording media utilizing the same” (Industrial Technology Research Institute, priority 2006, dated 2011).

Experiment: Optical measurement of the dyes by UV-visible spectrophotometer
Format: physicochemical
Set-up: Max absorption wavelength in MeOH solution: unit: nm
Settings: for absorption coefficient (ε) (* 10^4) / Max absorption wavelength in MeOH solution: MeOH solution
Source text: Measured by UV-visible spectrophotometer, the optical properties (e.g. maximum absorption wavelength in solution) of the dyes of the preferred embodiments are tabulated in Table 1. In Table 1, dye I-2 has a maximum absorption wavelength of 489 nm in methanol solution, and dye V-2 has a maximum absorption wavelength of 493 nm in methanol solution, respectively.

[1] = at second printed absorption maximum

SMILES | absorption coefficient (ε) (* 10^4) (at first absorption maximum) | Max absorption wavelength in MeOH solution (first band) | absorption coefficient (ε) (* 10^4) [1] | Max absorption wavelength in MeOH solution (second printed band) | maximum absorption wavelength in methanol solution
CC1=[N+](Cc2ccc(C(=O)OCC(F)(F)C(F)F)cc2)c2ccccc2C1(C)C [I-i] | 12.2 * 10^4 | 464 |  |  | 
CC1=[N+](Cc2ccc(C(=O)OCC(F)(F)C(F)F)cc2)c2ccccc2C1(C)C [I-f] | 8.08 * 10^4 | 448 |  |  | 
CCCCN(CCCC)c1ccc([N+](=C2C=CC(=[N+](c3ccc(N(CCCC)CCCC)cc3)c3ccc(N(CCCC)CCCC)cc3)C=C2)c2ccc(N(CCCC)CCCC)cc2)cc1 [I-d] | 6.58 * 10^4 | 460 | 5.11 * 10^4 | 1067 | 
c1ccncc1 [I-a] | 4.98 * 10^4 | 460 |  |  | 
CC1=[N+](C)c2ccccc2C1(C)C [Dye I-2] | 15.4 * 10^4 | 489 |  |  | 489 nm
CC1=[N+](C)c2ccccc2C1(C)C [V-e] | 10.35 * 10^4 | 490 |  |  | 
CC1=[N+](Cc2ccc(C(=O)OCC(F)(F)C(F)F)cc2)c2ccccc2C1(C)C [I-e] | 7.58 * 10^4 | 471 |  |  | 
CC1=[N+](Cc2ccc(C(=O)OCC(C)(C)C(C)C)cc2)c2ccccc2C1(C)C [V-b] | 9.72 * 10^4 | 492 |  |  | 
CC1=[N+](C)c2ccccc2C1(C)C [I-h] | 18.5 * 10^4 | 462 |  |  | 
CC1=[N+](Cc2ccc(C(=O)OCC(F)(F)C(C)F)cc2)c2ccccc2C1(C)C (stereo not drawn) [I-b] | 8.4 * 10^4 | 495 |  |  | 
CC1=[N+](Cc2ccc(C(=O)OCC(F)(F)C(F)F)cc2)c2ccccc2C1(C)C [I-g] | 12.99 * 10^4 | 463 |  |  | 
CC1=[N+](C)c2ccccc2C1(C)C [Dye V-2] | 19.1 * 10^4 | 493 |  |  | 493 nm
CC1=[N+](C)c2ccccc2C1(C)C [I-n] | 11.5 * 10^4 | 462 |  |  | 
CCCC[N+](CCCC)(CCCC)CCCC [I-c] | 6.22 * 10^4 | 460 |  |  | 
CCCC[N+]1=C(C)C(C)(C)c2ccccc21 [I-j] | 12.1 * 10^4 | 459 |  |  | 
COS(=O)(=O)CCCC[N+]1=C(C)C(C)(C)c2ccccc21 [I-l] | 12.5 * 10^4 | 461 |  |  | 
CCCCN(CCCC)c1ccc([N+](=C2C=CC(=[N+](c3ccc(N(CCCC)CCCC)cc3)c3ccc(N(CCCC)CCCC)cc3)C=C2)c2ccc(N(CCCC)CCCC)cc2)cc1 [V-c] | 6.8 * 10^4 | 461 | 3.8 * 10^4 | 1067 | 
CCN(CC)CC [V-d] | 8.45 * 10^4 | 463 |  |  | 
Cc1sc2ccccc2[n+]1C [I-m] | 10.7 * 10^4 | 472 |  |  | 
CCOC(=O)CCCC[N+]1=C(C)C(C)(C)c2ccccc21 [I-k] | 11.8 * 10^4 | 460 |  |  | 
CCCC[N+](CCCC)(CCCC)CCCC [V-a] | 6.41 * 10^4 | 461 |  |  | 
